# US3937612A, “Dialkylphosphonoacetylurea compounds and processes for preparation and use for flameproofing” (priority 1974, dated 1976)
# Assay: Water solubility (stated in words)
# Format: physicochemical
# Protocol: While stirring, 682 gm (5 mol) of chloroacetylurea were added portionwise to 831 gm (5 mol) of triethyl phosphite at a temperature of 135°C to 150°C. Each time, the addition of the next portion was delayed until the violent gas evolution had abated. After the last portion of chloracetylurea had been added, the stirring was continued at 150°Cuntil the evolution of gas was terminated. Small quantities of a volatile substance distilled off when the reaction mixture was heated on the water bath under the vacuum generated by an oil pump. The reaction mixture solidified upon cooling. […] The yield of crude product was 1120 gm (94% of the theory).
structure (smiles),measurement,value
"CCOP(=O)(CC(=O)NC(N)=O)OCC [diethylphosphonoacetylurea, Diethylphosphonoacetylurea]",water solubility,water-soluble
